Laboratory results from US20080194482A1, “Selective Apac2 Receptor Peptide Agonists” (priority 2005, published 2008).
Square brackets hold non-standard residues; d marks the D form. Peptide text beside a SMILES is read from it. * marks the point of attachment. Orn = NCCC[C@H](N)C(=O)O; Hexanoyl = CCCCCC(=O)*; Aib = CC(C)(N)C(=O)O

Columns and labels:
[1] = Rat serum stability (activity remaining, CHO-VPAC2 DiscoveRx read-out); assay type: in vitro ADME
Outline: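 Peptides preincubated overnight in rat serum at 37 °C without aprotinin versus 4 °C with aprotinin, then tested as 11-point 5× dilutions in duplicate on CHO-VPAC2 cells, 30 min at RT. cAMP measured by DiscoveRx kit against standards; EC50 derived for each aliquot.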

human VPAC2 = molecular target: T1, human VPAC2 (Homo sapiens, UniProt P41587); assay: Alpha screen cAMP assay, in vitro potency at human VPAC2 receptor; assay type: cell-based; settings: cAMP generation; single result from two analyses in a single run, some values average of more than one experiment
T1 construct: expressed in transfected cells
T1 sequence (P41587 24-438): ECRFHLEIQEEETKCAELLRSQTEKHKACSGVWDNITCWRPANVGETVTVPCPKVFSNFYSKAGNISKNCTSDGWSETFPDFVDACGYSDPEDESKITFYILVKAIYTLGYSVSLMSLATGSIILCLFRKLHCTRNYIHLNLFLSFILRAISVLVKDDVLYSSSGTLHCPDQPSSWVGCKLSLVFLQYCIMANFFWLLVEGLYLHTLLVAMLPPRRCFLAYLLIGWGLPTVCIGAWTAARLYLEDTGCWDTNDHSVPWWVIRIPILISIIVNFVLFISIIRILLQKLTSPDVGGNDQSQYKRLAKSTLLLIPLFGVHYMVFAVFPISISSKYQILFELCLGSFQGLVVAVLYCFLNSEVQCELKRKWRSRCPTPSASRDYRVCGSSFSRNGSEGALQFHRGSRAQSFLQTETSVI
Description: Alpha screen: Cells are washed in the culture flask once with PBS. Then, the cells are rinsed with enzyme free dissociation buffer. The dissociated cells are removed. The cells are then spun down and washed in stimulation buffer. For each data point, 50,000 cells suspended in stimulation buffer are used. To this buffer, Alpha screen acceptor beads are added along with the stimuli. This mixture is incubated for 60 minutes. Lysis buffer and Alpha screen donor beads are added and are incubated for 60 to 120 minutes. The Alpha screen signal (indicative of intracellular cAMP levels) is read in a suitable instrument (e.g. AlphaQuest from Perkin-Elmer). Steps including Alpha screen donor and acceptor beads are performed in reduced light. The EC50 for cAMP generation is calculated from the raw signal or is based on absolute cAMP levels as determined by a standard curve performed on each plate.
Results for each agonist are, at minimum, from two analyses performed in a single run. For some agonists, the results are the mean of more than one run. The tested peptide concentrations are: 10000, 1000, 100, 10, 3, 1, 0.1, 0.01, 0.003, 0.001, 0.0001 and 0.00001 nM.

human VPAC1 = molecular target: T2, human VPAC1 (Homo sapiens, UniProt P32241); assay: Filter binding assay, 125I-labeled VIP tracer, VPAC1 membranes; settings: read-out: Human VPAC1 Receptor Binding (IC50; nM)
T2 construct: expressed in transfected cells
T2 sequence (P32241 31-457): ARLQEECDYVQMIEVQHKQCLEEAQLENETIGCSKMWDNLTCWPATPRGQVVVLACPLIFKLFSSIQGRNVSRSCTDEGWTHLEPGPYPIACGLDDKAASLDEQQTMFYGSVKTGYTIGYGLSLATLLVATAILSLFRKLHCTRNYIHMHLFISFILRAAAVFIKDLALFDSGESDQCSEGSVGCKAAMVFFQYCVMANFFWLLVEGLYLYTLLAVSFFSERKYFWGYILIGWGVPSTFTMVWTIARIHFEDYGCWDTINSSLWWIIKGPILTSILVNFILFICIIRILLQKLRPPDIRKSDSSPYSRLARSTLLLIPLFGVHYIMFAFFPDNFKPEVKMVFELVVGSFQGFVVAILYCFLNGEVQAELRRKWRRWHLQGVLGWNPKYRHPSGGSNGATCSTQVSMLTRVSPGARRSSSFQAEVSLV

human PAC1 = molecular target: T3, human PAC1 (Homo sapiens, UniProt P41586); assay: Filter binding assay, 125I-labeled PACAP-27 tracer, PAC1 membranes; settings: read-out: Human PAC1 Receptor Binding (IC50; nM)
T3 construct: expressed in transfected cells
T3 sequence (P41586 21-468): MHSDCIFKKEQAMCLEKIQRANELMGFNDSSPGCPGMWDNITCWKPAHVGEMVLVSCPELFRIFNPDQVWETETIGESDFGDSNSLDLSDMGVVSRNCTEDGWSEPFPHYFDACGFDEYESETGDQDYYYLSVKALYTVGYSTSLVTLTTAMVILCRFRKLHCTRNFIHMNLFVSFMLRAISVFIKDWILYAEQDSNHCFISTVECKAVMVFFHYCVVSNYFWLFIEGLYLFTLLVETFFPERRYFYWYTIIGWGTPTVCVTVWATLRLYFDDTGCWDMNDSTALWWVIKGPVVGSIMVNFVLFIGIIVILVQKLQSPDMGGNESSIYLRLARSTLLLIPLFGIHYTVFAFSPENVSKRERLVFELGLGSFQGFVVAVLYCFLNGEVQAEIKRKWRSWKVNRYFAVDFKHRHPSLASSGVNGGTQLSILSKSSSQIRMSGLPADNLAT

rat VPAC2 receptor = molecular target: T4, rat VPAC2 receptor (Rattus norvegicus, UniProt P35000); assay: DiscoveRx cAMP assay, in vitro potency at rat VPAC2 receptor; assay type: cell-based; settings: CHO-PO cells transiently transfected with rat VPAC2; cAMP generation; mean of two independent runs
T4 construct: expressed in transfected cells; host or cells: CHO-PO (transient, Lipofectamine)
T4 sequence (P35000 23-437): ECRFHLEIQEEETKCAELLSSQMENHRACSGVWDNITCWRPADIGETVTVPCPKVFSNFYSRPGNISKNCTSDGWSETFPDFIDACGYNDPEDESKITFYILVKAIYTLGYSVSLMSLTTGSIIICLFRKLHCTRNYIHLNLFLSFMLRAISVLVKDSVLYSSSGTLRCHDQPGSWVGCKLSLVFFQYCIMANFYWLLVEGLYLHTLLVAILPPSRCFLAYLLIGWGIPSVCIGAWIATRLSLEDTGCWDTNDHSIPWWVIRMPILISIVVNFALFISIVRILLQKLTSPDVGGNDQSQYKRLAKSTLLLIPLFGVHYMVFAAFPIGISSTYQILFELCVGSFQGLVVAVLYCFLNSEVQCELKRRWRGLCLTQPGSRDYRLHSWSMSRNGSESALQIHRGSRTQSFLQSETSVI
Description: DiscoveRx: CHO-PO cells are transiently transfected with rat VPAC1 or VPAC2 receptor DNA using commercially available transfection reagents (Lipofectamine from Invitrogen). The cells are seeded at a density of 10,000/well in a 96-well plate and are allowed to grow for 3 days in […] culture medium. At day 3, the assay is performed.
On the day of the experiment, the medium is removed. Also, the cells are washed twice. The cells are incubated in assay buffer plus IBMX for 15 minutes at room temperature. Afterwards, the stimuli are added and are dissolved in assay buffer. The stimuli are present for 30 minutes. Then, the assay buffer is gently removed. The cell lysis reagent of the DiscoveRx cAMP kit is added. Thereafter, the standard protocol for developing the cAMP signal as described by the manufacturer is used (DiscoveRx Inc., USA). EC50 values for cAMP generation are calculated from the raw signal or are based on absolute cAMP levels as determined by a standard curve performed on each plate.
Results for each agonist are the mean of two independent runs. Rat VPAC1 and VPAC2 results are only generated using the DiscoveRx assay.

SMILES | Rat Serum Stability (estimated purity in % after overnight incub.) [1] | EC50 (human VPAC2) | IC50 (human VPAC1) | IC50 (human PAC1) | EC50 (rat VPAC2 receptor)
CCCCCC(=O)N[C@@H](Cc1c[nH]cn1)C(=O)N[C@@H](CO)C(=O)N[C@@H](CC(=O)O)C(=O)N[C@@H](C)C(=O)N[C@H](C(=O)N[C@@H](Cc1ccccc1)C(=O)N[C@H](C(=O)N[C@@H](CC(=O)O)C(=O)N[C@@H](CCC(N)=O)C(=O)N[C@@H](Cc1ccc(O)cc1)C(=O)N[C@H](C(=O)N[C@@H](CCCN)C(=O)N[C@@H](CC(C)C)C(=O)N[C@@H](CCCNC(=N)N)C(=O)NC(C)(C)C(=O)N[C@@H](CCC(N)=O)C(=O)N[C@H](C(=O)N[C@@H](C)C(=O)N[C@@H](C)C(=O)NC(C)(C)C(=O)N[C@@H](CCCCN)C(=O)N[C@@H](Cc1ccc(O)cc1)C(=O)N[C@@H](CC(C)C)C(=O)N[C@@H](CCC(N)=O)C(=O)N[C@@H](CO)C(=O)N[C@H](C(=O)N[C@@H](CCCN)C(=O)N[C@@H](CCC(N)=O)C(=O)N[C@@H](CCCN)C(=O)NCC(=O)NCC(=O)N1CCC[C@H]1C(=O)N[C@@H](CO)C(=O)N[C@@H](CO)C(=O)NCC(=O)N[C@@H](C)C(=O)N1CCC[C@H]1C(=O)N1CCC[C@H]1C(=O)N1CCC[C@H]1C(=O)N[C@@H](CO)C(=O)O)[C@@H](C)CC)C(C)C)[C@@H](C)O)[C@@H](C)O)C(C)C [Agonist P363] (Hexanoyl-HSDAVFTDQYT[Orn]LR[Aib]QVAA[Aib]KYLQSI[Orn]Q[Orn]GGPSSGAPPPS-OH; C-terminus assumed) | 81.66% | 0.27 nM | > 3000 nM | > 25000 nM | 0.09 nM
CCCCCC(=O)N[C@@H](Cc1c[nH]cn1)C(=O)N[C@@H](CO)C(=O)N[C@@H](CC(=O)O)C(=O)N[C@@H](C)C(=O)N[C@H](C(=O)N[C@@H](Cc1ccccc1)C(=O)N[C@H](C(=O)N[C@@H](CC(=O)O)C(=O)N[C@@H](CC(N)=O)C(=O)N[C@@H](Cc1ccc(O)cc1)C(=O)N[C@H](C(=O)N[C@@H](CCCN)C(=O)N[C@@H](CC(C)C)C(=O)N[C@@H](CCCNC(=N)N)C(=O)NC(C)(C)C(=O)N[C@@H](CCC(N)=O)C(=O)N[C@H](C(=O)N[C@@H](C)C(=O)N[C@@H](C)C(=O)NC(C)(C)C(=O)N[C@@H](CCCCN)C(=O)N[C@@H](Cc1ccc(O)cc1)C(=O)N[C@@H](CC(C)C)C(=O)N[C@@H](CO)C(=O)N[C@@H](CO)C(=O)N[C@H](C(=O)N[C@@H](CCCN)C(=O)N[C@@H](CC(N)=O)C(=O)N[C@@H](CCCN)C(=O)NCC(=O)NCC(=O)N1CCC[C@H]1C(=O)N[C@@H](CO)C(=O)N[C@@H](CO)C(=O)NCC(=O)N[C@@H](C)C(=O)N1CCC[C@H]1C(=O)N1CCC[C@H]1C(=O)N1CCC[C@H]1C(=O)N[C@@H](CO)C(=O)O)[C@@H](C)CC)C(C)C)[C@@H](C)O)[C@@H](C)O)C(C)C [Agonist P383] (Hexanoyl-HSDAVFTDNYT[Orn]LR[Aib]QVAA[Aib]KYLSSI[Orn]N[Orn]GGPSSGAPPPS-OH; C-terminus assumed) | 113.66% | 0.12 nM | > 3000 nM | > 25000 nM | 0.18 nM
CCCCCC(=O)N[C@@H](Cc1c[nH]cn1)C(=O)N[C@@H](CO)C(=O)N[C@@H](CC(=O)O)C(=O)N[C@@H](C)C(=O)N[C@H](C(=O)N[C@@H](Cc1ccccc1)C(=O)N[C@H](C(=O)N[C@@H](CC(=O)O)C(=O)N[C@@H](CC(N)=O)C(=O)N[C@@H](Cc1ccc(O)cc1)C(=O)N[C@H](C(=O)N[C@@H](CCCN)C(=O)N[C@@H](CC(C)C)C(=O)N[C@@H](CCCNC(=N)N)C(=O)NC(C)(C)C(=O)N[C@@H](CCC(N)=O)C(=O)N[C@H](C(=O)N[C@@H](C)C(=O)N[C@@H](C)C(=O)NC(C)(C)C(=O)N[C@@H](CO)C(=O)N[C@@H](Cc1ccc(O)cc1)C(=O)N[C@@H](CC(C)C)C(=O)N[C@@H](CCC(N)=O)C(=O)N[C@@H](CO)C(=O)N[C@H](C(=O)N[C@@H](CCCN)C(=O)N[C@@H](CC(N)=O)C(=O)N[C@@H](CCCN)C(=O)NCC(=O)NCC(=O)N1CCC[C@H]1C(=O)N[C@@H](CO)C(=O)N[C@@H](CO)C(=O)NCC(=O)N[C@@H](C)C(=O)N1CCC[C@H]1C(=O)N1CCC[C@H]1C(=O)N1CCC[C@H]1C(=O)N[C@@H](CO)C(=O)O)[C@@H](C)CC)C(C)C)[C@@H](C)O)[C@@H](C)O)C(C)C [Agonist P386] (Hexanoyl-HSDAVFTDNYT[Orn]LR[Aib]QVAA[Aib]SYLQSI[Orn]N[Orn]GGPSSGAPPPS-OH; C-terminus assumed) | 71.47% | 0.65 nM | > 3000 nM | > 25000 nM | –
CCCCCC(=O)N[C@@H](Cc1c[nH]cn1)C(=O)N[C@@H](CO)C(=O)N[C@@H](CC(=O)O)C(=O)N[C@@H](C)C(=O)N[C@H](C(=O)N[C@@H](Cc1ccccc1)C(=O)N[C@H](C(=O)N[C@@H](CC(=O)O)C(=O)N[C@@H](CC(N)=O)C(=O)N[C@@H](Cc1ccc(O)cc1)C(=O)N[C@H](C(=O)N[C@@H](CCCNC(=N)N)C(=O)N[C@@H](CC(C)C)C(=O)N[C@@H](CC(C)C)C(=O)N[C@@H](C)C(=O)N[C@@H](CCCCN)C(=O)N[C@@H](CC(C)C)C(=O)N[C@@H](C)C(=O)N[C@@H](CC(C)C)C(=O)N[C@@H](CCC(N)=O)C(=O)N[C@@H](CCCCN)C(=O)N[C@@H](Cc1ccc(O)cc1)C(=O)N[C@@H](CC(C)C)C(=O)N[C@@H](CCC(N)=O)C(=O)N[C@@H](CO)C(=O)N[C@H](C(=O)N[C@@H](CCCN)C(=O)N[C@@H](CC(N)=O)C(=O)N[C@@H](CCCN)C(=O)NCC(=O)NCC(=O)N1CCC[C@H]1C(=O)N[C@@H](CO)C(=O)N[C@@H](CO)C(=O)NCC(=O)N[C@@H](C)C(=O)N1CCC[C@H]1C(=O)N1CCC[C@H]1C(=O)N1CCC[C@H]1C(=O)N[C@@H](CO)C(=O)O)[C@@H](C)CC)[C@@H](C)O)[C@@H](C)O)C(C)C [Agonist P370] (Hexanoyl-HSDAVFTDNYTRLLAKLALQKYLQSI[Orn]N[Orn]GGPSSGAPPPS-OH; C-terminus assumed) | 41.82% | 0.23 nM | > 3000 nM | > 25000 nM | 0.05 nM
